Measured values reported in article PMC9204419, “A Toolbox for the Generation of Chemical Probes for Baculovirus IAP Repeat Containing Proteins” (Frontiers in Cell and Developmental Biology, 2022).
Where two headings read alike, the source gives them in different places. Starred links: 1 amine or outer side, 2 acyl side, 3 side chain; linkers in the order of their positions; H or OH if unused. Positions of bridges follow the written chain, without caps; N, C: chain ends. Non-standard residues stand in square brackets, D forms with d. Residues, ends and D or L forms follow the SMILES beside them. Chains are numbered I, II in the order given. Hexamethylenediamine = C(CCCN[*:2])CCN[*:1]; Dip = N[C@H](C(=O)O)C(c1ccccc1)c1ccccc1; Chg = N[C@H](C(=O)O)C1CCCCC1; NMeA = CN[C@@H](C)C(=O)O

Columns and labels:
BIRC2 = BIRC2 (Homo sapiens, UniProt Q13490); assay: NanoBRET cellular target engagement, full-length BIRC2
Procedure: (§1) In brief: Constructs contained the cDNA of full-length or single domains cloned in frame with an N-terminal NanoLuc-fusion as specified in Supplementary Table S2. Plasmids were transfected into HEK293T cells using FuGENE HD (Promega, E2312) and proteins were allowed to express for 20 h. […] The corresponding transfected cells were added and reseeded at a density of 2.5^5 cells/mL after trypsinization and resuspending in Opti-MEM without phenol red (Life Technologies). […] Competitive displacement data were then graphed using GraphPad Prism 9.3 software using a normalized 3-parameter curve fit with the following equation: Y = 100/(1 + 10^(X-LogIC50)).

BIRC4 = BIRC4 (Homo sapiens, UniProt P98170); assay: NanoBRET cellular target engagement, full-length BIRC4
Procedure: as §1

BIRC2-BIR3 domain [1] = biological target: T1, BIRC2-BIR3 domain (Homo sapiens, UniProt Q13490); assay: Isothermal titration calorimetry (ITC); type: binding; parameters: BIRC2-BIR3 domain (260–352) was expressed; His6 (N, cleaved yes); GST (N, cleaved yes); made in house; host or cells: E. coli; settings: 25°C; for Kd: duplicates, mean ± SD, read-out: K D Measured in ITC
Procedure: For this protocol, the chamber was pre-equilibrated with the test compound, and the BIRC2-BIR3 domain was titrated in while continuously measuring the rate of exothermic heat evolution. The heat of binding was integrated, corrected, and fitted to an independent single-binding site model based on the manufacturer’s instructions, from which thermodynamic parameters (ΔH and TΔS), equilibrium association and dissociation constants (K A and K D, respectively), and stoichiometry (n) were calculated.

BIRC2-BIR3 domain [2] = biological target: T1, BIRC2-BIR3 domain; assay: Differential scanning fluorimetry (DSF); settings: for ΔTm [°C] (Supplementary Table S1): technical replicate; for Mean, ΔTm [°C] (Supplementary Table S1): mean of n=3, difference to DMSO control
Procedure: Purified proteins were buffered in DSF buffer (25 mM HEPES pH 7.5, 500 mM NaCl) and were assayed in a 384-well plate (Thermo, #BC3384) with a final protein concentration of 20 μM in 10 μL final assay volume. Inhibitors were added in excess to a final concentration of 40 μM, using an ECHO 550 acoustic dispenser (Labcyte). As a fluorescent probe, SYPRO-Orange (Molecular Probes) was used at 5x final concentration. […] Data was analyzed using Boltzmann-equation in the Protein Thermal Shift software (Applied Biosystems). Samples were measured in technical triplicates.
The assay was run in the presence of DMSO to exclude DMSO influences towards melting temperature differences when testing small molecules (Figures 2C,D).

BIRC3 BIR3 = BIRC3 BIR3 (Homo sapiens, UniProt Q13489); assay: NanoBRET cellular target engagement, single domain BIRC3 BIR3
Procedure: as §1

BIRC2 BIR2 = BIRC2 BIR2 (Homo sapiens, UniProt Q13490); assay: NanoBRET cellular target engagement, single domain BIRC2 BIR2
Procedure: as §1

BIRC8 = biological target: T2, BIRC8 (Homo sapiens, UniProt Q96P09); assay: NanoBRET cellular target engagement, full-length BIRC8
T2 sequence (Q96P09 1-236): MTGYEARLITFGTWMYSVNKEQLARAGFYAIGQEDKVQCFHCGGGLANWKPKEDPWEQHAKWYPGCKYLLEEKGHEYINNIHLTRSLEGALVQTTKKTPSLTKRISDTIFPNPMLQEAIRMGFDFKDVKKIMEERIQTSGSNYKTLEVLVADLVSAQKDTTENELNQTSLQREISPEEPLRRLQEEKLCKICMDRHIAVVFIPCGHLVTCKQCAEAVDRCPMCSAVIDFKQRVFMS
Procedure: as §1

BIRC7 = biological target: T3, BIRC7 (Homo sapiens, UniProt Q96CA5); assay: NanoBRET cellular target engagement, full-length BIRC7
T3 sequence (Q96CA5 1-298): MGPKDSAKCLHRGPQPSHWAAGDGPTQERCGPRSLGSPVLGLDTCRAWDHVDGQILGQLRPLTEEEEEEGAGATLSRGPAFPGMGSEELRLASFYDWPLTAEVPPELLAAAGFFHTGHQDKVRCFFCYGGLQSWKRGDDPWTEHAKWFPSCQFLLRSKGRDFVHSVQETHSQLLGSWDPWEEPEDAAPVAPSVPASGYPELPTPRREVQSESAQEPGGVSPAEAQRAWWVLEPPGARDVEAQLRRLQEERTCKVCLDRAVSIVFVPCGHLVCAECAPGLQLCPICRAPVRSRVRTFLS
Procedure: as §1

BIRC3 BIR2 = BIRC3 BIR2 (Homo sapiens, UniProt Q13489); assay: NanoBRET cellular target engagement, single domain BIRC3 BIR2
Procedure: as §1

BIRC2 BIR3 = BIRC2 BIR3 (Homo sapiens, UniProt Q13490); assay: NanoBRET cellular target engagement, single domain BIRC2 BIR3
Procedure: as §1

BIRC2-BIR3 domain [3] = biological target: T1, BIRC2-BIR3 domain; parameters: BIRC2-BIR3 domain (260–352) was expressed; His6 (N, cleaved yes); GST (N, cleaved yes); made in house; host or cells: E. coli; settings: read-out: Literature FP Assay K I Values, cited from earlier work
BIRC2-BIR3 domain [4] = biological target: T1, BIRC2-BIR3 domain; assay: Fluorescence polarization (FP) competition assay with fluorescent SMAC probe; type: binding; parameters: BIRC2-BIR3 domain (260–352) was expressed; His6 (N, cleaved yes); GST (N, cleaved yes); made in house; host or cells: E. coli; settings: read-out: FP Assay K I Values
Procedure: Resulting data was plotted using GraphPad Prism 9.3 software and analyzed using a nonlinear fit to calculate the probe IC50. […] Compounds were titrated from 20 μM to 20 nM using an ECHO 550 acoustic dispenser (Labcyte) incubated for 1 h at room temperature and subsequent read out.
The assay is based on the displacement of a fluorescent SMAC mimetic from the binding site.

BIRC7 BIR = biological target: T4, BIRC7 BIR (Homo sapiens, UniProt Q96CA5); assay: NanoBRET cellular target engagement, single domain BIRC7 BIR
T4 sequence (Q96CA5 70-176): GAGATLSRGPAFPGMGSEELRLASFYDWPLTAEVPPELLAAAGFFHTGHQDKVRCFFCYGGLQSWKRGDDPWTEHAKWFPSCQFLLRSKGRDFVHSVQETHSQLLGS
Procedure: as §1

BIRC3 = BIRC3 (Homo sapiens, UniProt Q13489); assay: NanoBRET cellular target engagement, full-length BIRC3
Procedure: as §1

BIRC1 BIR[2] = biological target: T5, BIRC1 BIR[2] (Homo sapiens, UniProt Q13075); assay: NanoBRET cellular target engagement, single domain BIRC1 BIR[2]
T5 sequence (Q13075 139-251): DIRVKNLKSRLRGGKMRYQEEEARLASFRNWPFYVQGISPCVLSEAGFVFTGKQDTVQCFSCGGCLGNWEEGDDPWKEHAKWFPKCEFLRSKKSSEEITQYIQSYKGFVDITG
Procedure: as §1

BIRC8 BIR = biological target: T6, BIRC8 BIR (Homo sapiens, UniProt Q96P09); assay: NanoBRET cellular target engagement, single domain BIRC8 BIR
T6 sequence (Q96P09 1-90): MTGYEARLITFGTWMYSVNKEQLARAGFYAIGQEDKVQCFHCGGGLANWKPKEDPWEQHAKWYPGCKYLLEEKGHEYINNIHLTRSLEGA
Procedure: as §1

[5] = biological target: T7, BIRC2-BIR3 domain (260-352) (human, UniProt Q13490 260-352); assay: fluorescence polarisation; BIRC2-BIR3 titrated from 40 uM to 600 pM into 30 nM FAM-labelled SMAC probe; 50 mM HEPES pH 7.5, 150 mM NaCl, 5% glycerol, 1 mM TCEP, 0.05% TWEEN20; 1 h at room temperature; settings: both partners purified
T7 construct: BIR3 domain of human BIRC2 (cIAP1), residues 260-352; The expression tag was cleaved with TEV protease; also called BIR3 domain of BIRC2; not shown: His6, N-terminal, cleaved; GST, N-terminal, cleaved

[6] = read-out: EC50 ± SEM NanoBRET BIRC2, full-length, HEK293T, n = 4
[7] = read-out: EC50 ± SEM NanoBRET BIRC2 BIR2, single domain, HEK293T, n = 4
[8] = read-out: EC50 ± SEM NanoBRET BIRC8, full-length, HEK293T, n = 4
[9] = read-out: EC50 ± SEM NanoBRET BIRC7, full-length, HEK293T, n = 4
[10] = read-out: EC50 ± SEM NanoBRET BIRC2 BIR3, single domain, HEK293T, n = 4
[11] = BIRC2 BIR3 domain, Cheng-Prusoff from IC50, mean ± SD, n = 3
[12] = read-out: EC50 ± SEM NanoBRET BIRC7 BIR, single domain, HEK293T, n = 4
[13] = read-out: EC50 ± SEM NanoBRET BIRC1 BIR[2], single domain, HEK293T, n = 4
[14] = read-out: EC50 ± SEM NanoBRET BIRC8 BIR, single domain, HEK293T, n = 4

Sequence of BIRC2 (Q13490 whole entry): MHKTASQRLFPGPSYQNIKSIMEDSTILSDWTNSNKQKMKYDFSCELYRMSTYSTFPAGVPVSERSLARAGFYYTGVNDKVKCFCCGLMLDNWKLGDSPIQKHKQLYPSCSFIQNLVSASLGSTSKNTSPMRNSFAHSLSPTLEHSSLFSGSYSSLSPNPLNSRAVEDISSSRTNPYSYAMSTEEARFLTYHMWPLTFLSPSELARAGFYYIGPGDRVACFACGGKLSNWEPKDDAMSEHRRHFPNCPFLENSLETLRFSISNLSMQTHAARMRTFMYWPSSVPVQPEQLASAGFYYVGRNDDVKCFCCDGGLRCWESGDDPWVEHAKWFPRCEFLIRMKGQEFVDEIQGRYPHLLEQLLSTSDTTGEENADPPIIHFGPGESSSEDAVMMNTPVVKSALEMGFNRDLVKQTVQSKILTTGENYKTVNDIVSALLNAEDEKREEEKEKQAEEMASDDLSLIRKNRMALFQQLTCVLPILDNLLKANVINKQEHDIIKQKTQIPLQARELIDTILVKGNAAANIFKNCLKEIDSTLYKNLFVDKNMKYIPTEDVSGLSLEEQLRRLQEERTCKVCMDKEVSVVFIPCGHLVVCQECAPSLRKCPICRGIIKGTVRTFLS
T1 sequence (Q13490 260-352): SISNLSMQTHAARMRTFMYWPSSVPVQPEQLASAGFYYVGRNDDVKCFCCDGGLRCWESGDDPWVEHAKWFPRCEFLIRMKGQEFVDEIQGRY
Sequence of BIRC2 BIR3 (Q13490 251-372): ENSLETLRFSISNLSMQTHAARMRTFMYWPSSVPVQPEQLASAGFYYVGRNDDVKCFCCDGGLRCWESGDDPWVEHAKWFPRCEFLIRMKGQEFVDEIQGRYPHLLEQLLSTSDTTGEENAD
Sequence of BIRC2 BIR2 (Q13490 165-267): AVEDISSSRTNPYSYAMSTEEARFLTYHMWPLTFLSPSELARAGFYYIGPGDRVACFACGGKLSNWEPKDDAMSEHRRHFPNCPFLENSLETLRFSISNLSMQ
Sequence of BIRC3 BIR2 (Q13489 147-253): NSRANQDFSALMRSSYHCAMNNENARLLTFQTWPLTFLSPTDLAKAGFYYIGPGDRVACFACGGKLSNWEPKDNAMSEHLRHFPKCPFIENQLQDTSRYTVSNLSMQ
Sequence of BIRC3 BIR3 (Q13489 236-360): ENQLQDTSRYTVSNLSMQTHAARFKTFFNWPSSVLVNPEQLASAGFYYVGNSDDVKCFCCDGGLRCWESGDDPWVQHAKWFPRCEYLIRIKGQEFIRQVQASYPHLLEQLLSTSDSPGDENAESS
Sequence of BIRC3 (Q13489 whole entry, the tested form may be a part): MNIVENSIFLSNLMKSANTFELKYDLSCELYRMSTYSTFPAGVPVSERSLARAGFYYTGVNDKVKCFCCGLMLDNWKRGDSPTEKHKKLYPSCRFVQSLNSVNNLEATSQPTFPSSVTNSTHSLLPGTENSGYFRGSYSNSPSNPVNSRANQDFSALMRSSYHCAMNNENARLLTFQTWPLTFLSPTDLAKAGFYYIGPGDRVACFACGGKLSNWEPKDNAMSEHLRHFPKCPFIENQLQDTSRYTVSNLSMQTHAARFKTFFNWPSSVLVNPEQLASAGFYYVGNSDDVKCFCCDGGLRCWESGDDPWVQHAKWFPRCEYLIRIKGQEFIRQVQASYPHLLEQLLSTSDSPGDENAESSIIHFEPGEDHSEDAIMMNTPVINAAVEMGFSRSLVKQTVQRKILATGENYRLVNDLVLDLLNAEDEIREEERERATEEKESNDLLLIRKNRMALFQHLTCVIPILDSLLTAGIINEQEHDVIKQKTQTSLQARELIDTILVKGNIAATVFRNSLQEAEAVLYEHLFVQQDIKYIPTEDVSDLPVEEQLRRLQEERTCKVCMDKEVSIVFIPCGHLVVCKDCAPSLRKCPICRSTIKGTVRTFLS
Sequence of BIRC4 (P98170 whole entry, the tested form may be a part): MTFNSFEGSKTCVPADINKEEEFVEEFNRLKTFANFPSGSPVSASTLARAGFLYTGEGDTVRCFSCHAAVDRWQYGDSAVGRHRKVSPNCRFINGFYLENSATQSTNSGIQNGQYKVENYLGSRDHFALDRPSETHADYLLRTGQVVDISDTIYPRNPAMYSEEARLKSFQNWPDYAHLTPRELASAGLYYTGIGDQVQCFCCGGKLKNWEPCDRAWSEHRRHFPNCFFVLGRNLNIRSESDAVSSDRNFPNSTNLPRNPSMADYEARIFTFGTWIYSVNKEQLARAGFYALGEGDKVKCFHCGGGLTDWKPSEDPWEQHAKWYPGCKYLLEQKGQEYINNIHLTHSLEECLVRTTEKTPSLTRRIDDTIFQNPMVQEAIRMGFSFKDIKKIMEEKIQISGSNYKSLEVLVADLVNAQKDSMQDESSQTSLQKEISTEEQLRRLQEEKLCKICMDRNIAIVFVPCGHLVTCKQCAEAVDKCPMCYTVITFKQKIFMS
T7 sequence (Q13490 260-352): as the sequence (Q13490 260-352) above

## CN[C@@H](C)C(=O)N[C@H](C(=O)N1CCC[C@H]1C(=O)N[C@H]1c2ccccc2C[C@H]1OCC#CC#CCO[C@@H]1Cc2ccccc2[C@@H]1NC(=O)[C@@H]1CCCN1C(=O)[C@@H](NC(=O)[C@H](C)NC)C1CCCCC1)C1CCCCC1 [AZD5582]
BIRC2
  EC50: 192 ± 99.3 nM
BIRC4
  EC50: 79.6 ± 37.5 nM
BIRC2-BIR3 domain [1]
  Kd: 41.1 ± 2.9 nM
BIRC2-BIR3 domain [2]; native domain ∼74°C
  melting temperature of BIRC2 BIR3 domain with compound: 92 °C
BIRC2-BIR3 domain [2]; read-out: DSF Assay ΔTm
  ΔTm at 40 µM: 18 °C
BIRC2-BIR3 domain [2]; first column
  ΔTm [°C] (Supplementary Table S1): 18.2 °C
BIRC2-BIR3 domain [2]; third column
  ΔTm [°C] (Supplementary Table S1): 17.9 °C
BIRC3 BIR3
  EC50: 4.1 ± 0.1 nM
BIRC2 BIR2
  EC50: 171 ± 151 nM
BIRC8
  EC50: 76.3 ± 0.1 nM
BIRC7
  EC50: 8 ± 0.3 nM
BIRC3 BIR2
  EC50: 28.5 ± 3.2 nM
BIRC2 BIR3
  EC50: 23 ± 14.4 nM
BIRC2-BIR3 domain [3]; calculated from IC50, ref Hennessy et al. (2013)
  Ki: 6.4 ± 4.3 nM
BIRC2-BIR3 domain [4]
  Ki: 2.3 ± 0.3 nM
BIRC7 BIR
  EC50: 16.1 ± 6.3 nM
BIRC3
  EC50: 81.1 ± 14.8 nM
BIRC1 BIR[2]
  EC50: 776 ± 200 nM
BIRC8 BIR
  EC50: 85.5 ± 11.1 nM

## CN[C@@H](C)C(=O)N[C@H](C(=O)N1CCC[C@H]1C(=O)N[C@H](C(=O)NCCCCCCNC(=O)[C@@H](NC(=O)[C@@H]1CCCN1C(=O)[C@@H](NC(=O)[C@H](C)NC)C1CCCCC1)C(c1ccccc1)c1ccccc1)C(c1ccccc1)c1ccccc1)C1CCCCC1 [BV-6] (I: H-[NMeA][Chg]P[Dip] / II: H-[NMeA][Chg]P[Dip]; linker I:C-II:C via Hexamethylenediamine)
BIRC2; [6]
  EC50: 500 ± 100 nM
BIRC4; read-out: EC50 ± SEM NanoBRET BIRC4, full-length, HEK293T, n = 4
  EC50: 900 ± 100 nM
BIRC2-BIR3 domain [1]
  ITC TΔS: 6.94 ± 0.1 kcal/mol
  Kd: 24.8 ± 8.5 nM
BIRC2-BIR3 domain [2]
  Mean, ΔTm [°C] (Supplementary Table S1): 9.1 °C
BIRC2-BIR3 domain [2]; first column
  ΔTm [°C] (Supplementary Table S1): 9.1 °C
BIRC2-BIR3 domain [2]; second column
  ΔTm [°C] (Supplementary Table S1): 9.1 °C
BIRC2-BIR3 domain [2]; third column
  ΔTm [°C] (Supplementary Table S1): 9.1 °C
BIRC3 BIR3; read-out: EC50 ± SEM NanoBRET BIRC3 BIR3, single domain, HEK293T, n = 4
  EC50: 1700 ± 400 nM
BIRC2 BIR2; [7]
  EC50: > 50000 nM
BIRC2 BIR2; single domain, HEK293T, n = 4
  EC50 ± SEM NanoBRET BIRC2 BIR2: did not show any binding
BIRC8; [8]
  EC50: 2600 ± 200 nM
BIRC7; [9]
  EC50: 2600 ± 800 nM
BIRC3 BIR2; read-out: EC50 ± SEM NanoBRET BIRC3 BIR2, single domain, HEK293T, n = 4
  EC50: 18000 ± 25200 nM
BIRC2 BIR3; [10]
  EC50: 800 ± 100 nM
BIRC2-BIR3 domain [3]; ref Varfolomeev et al. (2007)
  Ki: 169 nM
BIRC2-BIR3 domain [4]; [11]
  Ki: 8.4 ± 0.7 nM
BIRC7 BIR; [12]
  EC50: 2700 ± 800 nM
BIRC3; read-out: EC50 ± SEM NanoBRET BIRC3, full-length, HEK293T, n = 4
  EC50: 800 ± 100 nM
BIRC1 BIR[2]; [13]
  EC50: 10900 ± 2100 nM
BIRC8 BIR; [14]
  EC50: 3000 ± 100 nM

## CN[C@@H](C)C(=O)N[C@H]1CCCC[C@H]2CC[C@@H](C(=O)N[C@@H](c3ccccc3)c3cn(CCCCc4ccc(CCCCn5cc([C@@H](NC(=O)[C@@H]6CC[C@@H]7CCCC[C@H](NC(=O)[C@H](C)NC)C(=O)N76)c6ccccc6)nn5)cc4)nn3)N2C1=O [SM-164]
BIRC2; [6]
  EC50: 5.8 ± 0.6 nM
BIRC2-BIR3 domain [1]
  Kd: 41.6 ± 3.4 nM
BIRC2-BIR3 domain [2]; difference in melting temperature to DMSO control, 20 μM protein, 40 μM inhibitor, mean ± SD, n = 3
  DSF Assay ΔTm: 13.4 ± 0.2 °C
BIRC2-BIR3 domain [2]
  Mean, ΔTm [°C] (Supplementary Table S1): 13.4 °C
BIRC2-BIR3 domain [2]; first column
  ΔTm [°C] (Supplementary Table S1): 13.6 °C
BIRC2-BIR3 domain [2]; second column
  ΔTm [°C] (Supplementary Table S1): 13.4 °C
BIRC2-BIR3 domain [2]; third column
  ΔTm [°C] (Supplementary Table S1): 13.1 °C
BIRC2 BIR2; [7]
  EC50: 6610 ± 5280 nM
BIRC8; [8]
  EC50: 85.7 ± 4.7 nM
BIRC7; [9]
  EC50: 16.5 ± 6 nM
BIRC2 BIR3; [10]
  EC50: 0.8 ± 0.1 nM
BIRC2-BIR3 domain [3]; ref Lu et al. (2008)
  Ki: 0.3 ± 0.1 nM
BIRC2-BIR3 domain [4]; [11]
  Ki: 1.8 ± 0.7 nM
BIRC7 BIR; [12]
  EC50: 50.9 ± 44.4 nM
BIRC1 BIR[2]; [13]
  EC50: 941 ± 258 nM
BIRC8 BIR; [14]
  EC50: 87.3 ± 9.4 nM

B1: fluorescently labeled SMAC probe (AVPIAQKSEK-K(5-FAM)-NH2) (peptide)
peptide: AVPIAQKSEKK
modifications: 5-FAM on the C-terminal lysine (K(5-FAM)); C-terminal amide (NH2)
notes: two lysines that follow the SMAC stretch; the last one carries 5-FAM; Probably a synthetic peptide; also called fluorescent SMAC mimetic; tracer
[5]
  Kd: 14.9 nM
